Measurements taken from PMC7026418, “The kinase polypharmacology landscape of clinical PARP inhibitors” (Scientific Reports, 2020).
Where two headings read alike, the source gives them in different places. Values belong to the compound of their own block, whether it stands above or below them.

What was measured:
Test in all cases: biochemical
Design in all cases: DiscoveRx KINOMEscan active site-directed competition binding; percent of control kinase bound to immobilised ligand
FRK = FRK (Homo sapiens, UniProt P42685)
Chain of FRK (P42685 whole entry): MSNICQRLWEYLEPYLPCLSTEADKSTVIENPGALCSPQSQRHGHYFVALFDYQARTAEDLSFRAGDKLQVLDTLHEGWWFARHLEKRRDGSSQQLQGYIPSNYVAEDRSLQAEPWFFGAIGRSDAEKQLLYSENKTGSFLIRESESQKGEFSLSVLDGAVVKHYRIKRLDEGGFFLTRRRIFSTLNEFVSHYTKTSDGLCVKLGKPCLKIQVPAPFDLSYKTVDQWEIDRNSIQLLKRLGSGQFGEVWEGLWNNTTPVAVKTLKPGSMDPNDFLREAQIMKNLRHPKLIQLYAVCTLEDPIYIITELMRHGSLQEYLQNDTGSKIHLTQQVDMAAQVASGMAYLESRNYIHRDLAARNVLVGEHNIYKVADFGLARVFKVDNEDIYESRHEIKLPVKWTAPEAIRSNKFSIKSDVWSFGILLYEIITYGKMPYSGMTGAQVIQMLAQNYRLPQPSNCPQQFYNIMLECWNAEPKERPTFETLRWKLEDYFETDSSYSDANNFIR

AAK1 = AAK1 (Homo sapiens, UniProt Q2M2I8)
Chain of AAK1 (Q2M2I8 whole entry): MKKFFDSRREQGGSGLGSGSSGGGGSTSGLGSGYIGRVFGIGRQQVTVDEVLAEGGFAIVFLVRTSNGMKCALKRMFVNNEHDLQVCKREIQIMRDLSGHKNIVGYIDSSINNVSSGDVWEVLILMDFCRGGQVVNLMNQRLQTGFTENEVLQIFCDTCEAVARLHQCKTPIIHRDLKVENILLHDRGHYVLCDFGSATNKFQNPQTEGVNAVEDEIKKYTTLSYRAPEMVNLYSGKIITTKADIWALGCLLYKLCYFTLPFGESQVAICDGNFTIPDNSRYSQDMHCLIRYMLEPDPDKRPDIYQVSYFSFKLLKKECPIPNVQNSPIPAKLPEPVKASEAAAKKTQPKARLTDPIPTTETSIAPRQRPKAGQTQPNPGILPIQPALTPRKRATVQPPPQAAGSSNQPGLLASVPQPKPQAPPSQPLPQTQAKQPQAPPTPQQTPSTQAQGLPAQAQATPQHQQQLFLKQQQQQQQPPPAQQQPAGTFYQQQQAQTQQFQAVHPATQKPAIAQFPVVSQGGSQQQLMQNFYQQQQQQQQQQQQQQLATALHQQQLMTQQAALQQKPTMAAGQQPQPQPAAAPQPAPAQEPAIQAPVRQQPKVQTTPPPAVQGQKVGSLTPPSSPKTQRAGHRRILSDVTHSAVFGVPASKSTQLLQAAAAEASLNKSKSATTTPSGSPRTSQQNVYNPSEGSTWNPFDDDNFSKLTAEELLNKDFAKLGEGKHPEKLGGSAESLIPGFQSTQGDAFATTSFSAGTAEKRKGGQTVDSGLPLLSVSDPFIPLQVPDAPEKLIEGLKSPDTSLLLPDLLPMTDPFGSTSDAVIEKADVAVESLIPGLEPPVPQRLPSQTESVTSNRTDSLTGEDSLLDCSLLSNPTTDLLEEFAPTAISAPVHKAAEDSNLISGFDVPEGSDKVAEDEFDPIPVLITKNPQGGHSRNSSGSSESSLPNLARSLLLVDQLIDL

MAK = target: T1, MAK (Homo sapiens, UniProt P20794)
T1 sequence (P20794 1-623): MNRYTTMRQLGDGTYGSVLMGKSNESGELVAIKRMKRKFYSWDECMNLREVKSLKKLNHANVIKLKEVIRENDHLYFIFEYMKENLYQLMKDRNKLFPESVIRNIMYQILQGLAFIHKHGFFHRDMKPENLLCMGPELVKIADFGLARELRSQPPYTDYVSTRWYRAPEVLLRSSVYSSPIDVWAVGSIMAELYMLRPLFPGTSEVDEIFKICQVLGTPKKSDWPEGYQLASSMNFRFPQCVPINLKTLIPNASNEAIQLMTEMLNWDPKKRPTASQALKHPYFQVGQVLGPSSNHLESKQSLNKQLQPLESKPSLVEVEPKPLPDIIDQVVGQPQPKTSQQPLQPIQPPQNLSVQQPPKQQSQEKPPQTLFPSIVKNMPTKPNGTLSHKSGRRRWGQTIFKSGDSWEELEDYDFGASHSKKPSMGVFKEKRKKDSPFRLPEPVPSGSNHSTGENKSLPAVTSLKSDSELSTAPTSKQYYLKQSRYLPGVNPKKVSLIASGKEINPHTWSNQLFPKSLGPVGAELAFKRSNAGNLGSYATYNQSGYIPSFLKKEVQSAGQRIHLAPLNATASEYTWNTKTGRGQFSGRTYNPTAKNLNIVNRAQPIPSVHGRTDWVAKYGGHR

CAMK2G = CAMK2G (Homo sapiens, UniProt Q13555)
Chain of CAMK2G (Q13555 whole entry): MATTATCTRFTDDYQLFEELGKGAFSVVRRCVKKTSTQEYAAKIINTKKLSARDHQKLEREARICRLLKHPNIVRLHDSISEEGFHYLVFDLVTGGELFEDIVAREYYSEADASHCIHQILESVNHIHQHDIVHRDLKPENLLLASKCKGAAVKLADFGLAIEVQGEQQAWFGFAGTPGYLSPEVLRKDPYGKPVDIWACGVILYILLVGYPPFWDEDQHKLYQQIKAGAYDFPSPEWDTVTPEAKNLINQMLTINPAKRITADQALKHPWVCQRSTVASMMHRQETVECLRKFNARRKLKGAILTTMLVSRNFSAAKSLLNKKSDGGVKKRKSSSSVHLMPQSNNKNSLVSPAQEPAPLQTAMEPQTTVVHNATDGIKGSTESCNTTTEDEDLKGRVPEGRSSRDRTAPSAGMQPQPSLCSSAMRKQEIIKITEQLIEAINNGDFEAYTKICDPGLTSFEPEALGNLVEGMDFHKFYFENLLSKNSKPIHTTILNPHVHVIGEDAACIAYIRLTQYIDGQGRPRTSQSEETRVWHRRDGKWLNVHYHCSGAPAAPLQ

MLCK = target: T2, MLCK (Homo sapiens, UniProt Q32MK0)
T2 construct: gene MYLK3
T2 sequence (Q32MK0 1-819): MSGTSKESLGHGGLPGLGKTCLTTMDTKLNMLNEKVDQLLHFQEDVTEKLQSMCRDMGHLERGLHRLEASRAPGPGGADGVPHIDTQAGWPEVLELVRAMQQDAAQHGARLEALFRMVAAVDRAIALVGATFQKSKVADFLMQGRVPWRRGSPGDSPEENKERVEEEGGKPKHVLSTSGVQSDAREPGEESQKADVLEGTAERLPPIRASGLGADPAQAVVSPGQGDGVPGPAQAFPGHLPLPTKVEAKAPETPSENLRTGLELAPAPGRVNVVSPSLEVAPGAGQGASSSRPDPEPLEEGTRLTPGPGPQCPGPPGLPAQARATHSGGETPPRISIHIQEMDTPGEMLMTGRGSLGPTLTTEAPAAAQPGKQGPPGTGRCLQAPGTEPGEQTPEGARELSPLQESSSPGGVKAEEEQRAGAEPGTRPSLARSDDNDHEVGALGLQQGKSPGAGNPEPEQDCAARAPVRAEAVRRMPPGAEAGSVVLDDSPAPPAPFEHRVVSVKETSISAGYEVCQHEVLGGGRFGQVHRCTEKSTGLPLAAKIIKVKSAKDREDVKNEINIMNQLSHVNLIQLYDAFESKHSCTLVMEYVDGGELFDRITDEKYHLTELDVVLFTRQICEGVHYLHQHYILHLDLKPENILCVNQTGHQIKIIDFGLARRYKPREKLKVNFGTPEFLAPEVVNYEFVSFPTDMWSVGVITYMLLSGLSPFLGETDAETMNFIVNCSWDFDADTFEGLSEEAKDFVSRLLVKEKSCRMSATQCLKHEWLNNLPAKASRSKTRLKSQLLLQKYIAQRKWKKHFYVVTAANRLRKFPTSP

PRKD3 = target: T3, PRKD3 (Homo sapiens, UniProt O94806)
T3 sequence (O94806 1-890): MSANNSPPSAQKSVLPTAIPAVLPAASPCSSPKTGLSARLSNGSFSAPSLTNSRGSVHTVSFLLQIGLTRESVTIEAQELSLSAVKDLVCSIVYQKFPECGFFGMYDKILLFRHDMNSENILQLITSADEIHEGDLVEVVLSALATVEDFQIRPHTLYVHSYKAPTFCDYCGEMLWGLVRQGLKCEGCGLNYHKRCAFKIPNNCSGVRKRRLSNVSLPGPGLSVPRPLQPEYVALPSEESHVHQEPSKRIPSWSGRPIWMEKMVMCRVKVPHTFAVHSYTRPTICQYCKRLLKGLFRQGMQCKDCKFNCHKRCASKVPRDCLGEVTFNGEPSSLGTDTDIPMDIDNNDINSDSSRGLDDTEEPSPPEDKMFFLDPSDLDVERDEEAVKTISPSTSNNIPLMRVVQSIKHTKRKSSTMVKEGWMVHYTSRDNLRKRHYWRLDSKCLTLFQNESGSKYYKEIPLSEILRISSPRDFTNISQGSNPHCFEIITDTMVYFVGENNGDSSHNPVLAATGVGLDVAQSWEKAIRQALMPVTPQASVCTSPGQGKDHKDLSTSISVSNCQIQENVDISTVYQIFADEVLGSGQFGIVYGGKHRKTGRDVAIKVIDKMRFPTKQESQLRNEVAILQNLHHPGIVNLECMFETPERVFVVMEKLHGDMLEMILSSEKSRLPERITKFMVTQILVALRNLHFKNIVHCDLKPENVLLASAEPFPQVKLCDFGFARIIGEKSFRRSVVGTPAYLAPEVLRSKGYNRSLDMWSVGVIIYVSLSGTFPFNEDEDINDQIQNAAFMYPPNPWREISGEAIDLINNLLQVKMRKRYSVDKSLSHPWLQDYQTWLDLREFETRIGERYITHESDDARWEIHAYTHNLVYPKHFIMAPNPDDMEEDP

AURKB = AURKB (Homo sapiens, UniProt Q96GD4)
Chain of AURKB (Q96GD4 whole entry): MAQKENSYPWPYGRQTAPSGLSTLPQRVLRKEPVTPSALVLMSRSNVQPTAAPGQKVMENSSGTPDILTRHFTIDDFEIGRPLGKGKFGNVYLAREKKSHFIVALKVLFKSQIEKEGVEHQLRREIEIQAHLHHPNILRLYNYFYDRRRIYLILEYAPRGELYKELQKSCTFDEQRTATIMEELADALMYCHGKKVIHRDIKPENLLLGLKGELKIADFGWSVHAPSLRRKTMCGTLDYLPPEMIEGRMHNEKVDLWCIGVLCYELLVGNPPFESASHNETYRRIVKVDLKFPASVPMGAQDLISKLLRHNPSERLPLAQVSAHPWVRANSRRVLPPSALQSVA

[1] = read-out: Olaparib / %Ctrl @ 10000nM
[2] = read-out: Talazoparib (BMN 673) / %Ctrl @ 10000nM
[3] = read-out: Rucaparib / %Ctrl @ 10000nM, binding competition, % of control
[4] = read-out: Niraparib (MK-4827) / %Ctrl @ 10000nM

- percent of control binding at 10 µM (FRK; [1]): 90%
- percent of control binding at 10 µM (AAK1; [1]): 100%
- percent of control binding at 10 µM (MAK; [1]): 77%
- percent of control binding at 10 µM (CAMK2G; [1]): 100%
- percent of control binding at 10 µM (MLCK; [1]): 95%
- percent of control binding at 10 µM (PRKD3; [1]): 83%
- percent of control binding at 10 µM (AURKB; [1]): 100%
SMILES: O=C(c1cc(Cc2n[nH]c(=O)c3ccccc23)ccc1F)N1CCN(C(=O)C2CC2)CC1 [Olaparib]

- percent of control binding at 10 µM (FRK; [2]): 85%
- percent of control binding at 10 µM (AAK1; [2]): 93%
- percent of control binding at 10 µM (MAK; [2]): 93%
- percent of control binding at 10 µM (CAMK2G; [2]): 95%
- percent of control binding at 10 µM (MLCK; [2]): 98%
- percent of control binding at 10 µM (PRKD3; [2]): 89%
- percent of control binding at 10 µM (AURKB; [2]): 73%
SMILES: Cn1ncnc1[C@H]1c2n[nH]c(=O)c3cc(F)cc(c23)N[C@@H]1c1ccc(F)cc1 [Talazoparib]

- percent of control binding at 10 µM (FRK; [3]): 97%
- percent of control binding at 10 µM (AAK1; [3]): 82%
- percent of control binding at 10 µM (MAK; [3]): 81%
- percent of control binding at 10 µM (CAMK2G; [3]): 83%
- percent of control binding at 10 µM (MLCK; [3]): 53%
- percent of control binding at 10 µM (PRKD3; [3]): 78%
- percent of control binding at 10 µM (AURKB; [3]): 100%
SMILES: CNCc1ccc(-c2[nH]c3cc(F)cc4c3c2CCNC4=O)cc1 [Rucaparib]

SMILES: NC(=O)c1cccc2cn(-c3ccc([C@@H]4CCCNC4)cc3)nc12 [Niraparib]
- percent of control binding at 10 µM (FRK; [4]): 91%
- percent of control binding at 10 µM (AAK1; [4]): 83%
- percent of control binding at 10 µM (MAK; [4]): 56%
- percent of control binding at 10 µM (CAMK2G; [4]): 95%
- percent of control binding at 10 µM (MLCK; [4]): 92%
- percent of control binding at 10 µM (PRKD3; [4]): 76%
- percent of control binding at 10 µM (AURKB; [4]): 8.1%
